Measurements from ChEMBL document CHEMBL4680278 (J Med Chem, 2020).

What was measured:
[1] = Drug degradation in simulated gastric fluid at 40 mg incubated for 2 hrs by UPLC-MS analysis; format: ADME; settings: read-out: Drug degradation
[2] = Apparent oral clearance in human at 5 to 20 mg using oromucosal-spray formulation by GC-MS analysis; format: ADME; settings: in vivo, dose 5-20 mg
Cytochrome P450 3A5 = Cytochrome P450 3A5 (Homo sapiens, UniProt P20815); test: Competitive inhibition of human recombinant CYP3A5 expressed in baculovirus-infected insect cells using diltiazem as substrate incubated for 15 mins followed by NADPH-generating system addition by Michaelis-Menten plot analysis; format: ADME
Chain of Cytochrome P450 3A5 (P20815 whole entry): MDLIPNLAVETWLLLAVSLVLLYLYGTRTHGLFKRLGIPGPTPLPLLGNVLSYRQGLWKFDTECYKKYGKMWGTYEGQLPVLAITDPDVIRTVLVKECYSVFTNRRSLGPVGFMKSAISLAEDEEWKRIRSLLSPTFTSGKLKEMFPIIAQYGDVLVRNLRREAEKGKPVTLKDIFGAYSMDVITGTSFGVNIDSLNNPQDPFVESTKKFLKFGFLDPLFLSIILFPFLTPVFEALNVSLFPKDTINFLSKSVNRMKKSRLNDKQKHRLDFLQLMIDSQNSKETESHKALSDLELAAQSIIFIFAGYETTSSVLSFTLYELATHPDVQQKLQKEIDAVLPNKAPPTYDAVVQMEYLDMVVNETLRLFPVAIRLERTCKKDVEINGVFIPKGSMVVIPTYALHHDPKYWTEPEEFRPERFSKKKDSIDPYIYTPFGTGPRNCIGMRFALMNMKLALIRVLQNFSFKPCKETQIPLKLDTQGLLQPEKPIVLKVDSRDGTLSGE

[3] = Maximum drug concentration in Swiss mouse brain at 120 mg/kg, po measured up to 24 hrs by HPLC analysis; format: ADME, organism-based; parameters: route oral, dose 120 mg/kg, time <=24
D(1A) dopamine receptor = D(1A) dopamine receptor (Homo sapiens, UniProt P21728); test: Inhibition of D1 dopamine receptor (unknown origin)
Chain of D(1A) dopamine receptor (P21728 whole entry): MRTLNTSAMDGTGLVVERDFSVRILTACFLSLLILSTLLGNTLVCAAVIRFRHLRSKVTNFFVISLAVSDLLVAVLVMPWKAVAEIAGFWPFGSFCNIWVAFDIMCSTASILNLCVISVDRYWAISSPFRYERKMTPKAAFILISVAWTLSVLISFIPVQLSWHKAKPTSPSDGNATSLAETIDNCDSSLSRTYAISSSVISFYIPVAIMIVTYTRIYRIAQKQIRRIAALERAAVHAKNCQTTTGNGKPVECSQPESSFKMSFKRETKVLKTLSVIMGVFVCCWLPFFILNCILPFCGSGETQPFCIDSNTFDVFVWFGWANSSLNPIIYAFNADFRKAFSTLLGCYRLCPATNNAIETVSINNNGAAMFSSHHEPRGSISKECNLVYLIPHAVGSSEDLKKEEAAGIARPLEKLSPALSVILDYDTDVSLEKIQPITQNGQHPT

Cytochrome P450 2B6 = target: T1, Cytochrome P450 2B6 (Homo sapiens, UniProt P20813); test: Mixed type inhibition of human recombinant CYP2B6 expressed in baculovirus-infected insect cells using […] as substrate preincubated for 5 mins followed by NADPH-generating system addition by Lineweaver-Burk plot analysis; format: ADME
T1 sequence (P20813 whole entry): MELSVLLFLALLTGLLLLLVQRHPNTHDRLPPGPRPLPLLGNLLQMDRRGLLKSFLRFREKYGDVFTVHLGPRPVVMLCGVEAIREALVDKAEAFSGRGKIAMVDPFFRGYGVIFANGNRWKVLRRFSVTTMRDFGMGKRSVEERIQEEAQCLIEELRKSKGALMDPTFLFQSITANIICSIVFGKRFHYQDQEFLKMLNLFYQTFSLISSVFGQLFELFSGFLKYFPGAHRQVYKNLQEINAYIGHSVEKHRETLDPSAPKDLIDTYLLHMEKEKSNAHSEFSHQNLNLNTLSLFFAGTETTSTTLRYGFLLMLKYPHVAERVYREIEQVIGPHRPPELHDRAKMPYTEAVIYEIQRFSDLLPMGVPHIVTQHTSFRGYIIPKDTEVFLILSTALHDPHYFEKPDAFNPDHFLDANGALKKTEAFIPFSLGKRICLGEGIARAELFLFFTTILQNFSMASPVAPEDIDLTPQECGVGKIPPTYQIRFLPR

[4] = Elimination rate constant in human using oromucosal-spray measured for 6 weeks
[5] = target: T2, 5-hydroxytryptamine receptor 2C (Homo sapiens, UniProt P28335); test: Inhibition of 5-HT2C (unknown origin)
T2 sequence (P28335 whole entry): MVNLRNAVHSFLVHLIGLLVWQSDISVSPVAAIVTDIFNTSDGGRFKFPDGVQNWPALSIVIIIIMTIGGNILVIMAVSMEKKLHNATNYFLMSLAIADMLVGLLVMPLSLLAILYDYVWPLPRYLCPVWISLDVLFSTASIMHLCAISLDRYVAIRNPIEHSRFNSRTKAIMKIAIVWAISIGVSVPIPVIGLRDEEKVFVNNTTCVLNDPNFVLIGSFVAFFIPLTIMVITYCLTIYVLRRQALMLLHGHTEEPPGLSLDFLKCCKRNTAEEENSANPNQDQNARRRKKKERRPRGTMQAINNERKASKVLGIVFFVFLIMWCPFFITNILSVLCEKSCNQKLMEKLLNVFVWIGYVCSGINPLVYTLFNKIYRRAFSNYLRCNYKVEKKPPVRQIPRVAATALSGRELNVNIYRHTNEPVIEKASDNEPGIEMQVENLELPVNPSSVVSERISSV

[6] = Critical aggregation concentration of compound by dynamic light scattering; format: physicochemical
[7] = Volume of distribution in human at 20 mg, iv measured after 0.05 to 72 hrs by gas chromatograph mass spectrometry; format: ADME, organism-based; settings: in vivo, time 0.05-72 hrs
[8] = Elimination half-life in human at 10 mg using oromucosal-spray formulation measured upto 24 hrs by LC-MS/MS assay; format: ADME; settings: in vivo, read-out: beta t1/2 (converted)
[9] = Elimination half-life in human at 10 mg, po using PTL401 formulation measured upto 24 hrs by LC-MS/MS assay; format: ADME, organism-based; settings: in vivo, read-out: beta t1/2 (converted)
[10] = Half-life in human at 20 mg, iv measured after 0.05 to 72 hrs by gas chromatograph mass spectrometry; format: ADME, organism-based; settings: in vivo, time 0.05-72 hrs

C=C(C)[C@@H]1CCC(C)=C[C@H]1c1c(O)cc(CCCCC)cc1O [CANNABIDIOL]
degraded at 2 h [1]: 98%
CL/F [2]: 41700 mL/min
Ki (Cytochrome P450 3A5): 0.19 µM
Cmax [3]: 4 µM
Ki (D(1A) dopamine receptor): 2.7 µM
Ki (Cytochrome P450 2B6): 0.69 µM
k el at 1008 h [4]: 3.33e-05 s⁻¹
Ki [5]: 1.1 µM
CAC [6]: 12.5 µM
Vd [7]: 2520 L
half-life [8]: 2 h
half-life [9]: 2 h
half-life [10]: 24 h
